For data set [1] the following is noted: 30 (6a); ref 9 (6b); cited from earlier work.
The target in the next data set is T1, soluble hCD73 (Homo sapiens, UniProt P21589).
T1 sequence (P21589 27-549 limits assumed): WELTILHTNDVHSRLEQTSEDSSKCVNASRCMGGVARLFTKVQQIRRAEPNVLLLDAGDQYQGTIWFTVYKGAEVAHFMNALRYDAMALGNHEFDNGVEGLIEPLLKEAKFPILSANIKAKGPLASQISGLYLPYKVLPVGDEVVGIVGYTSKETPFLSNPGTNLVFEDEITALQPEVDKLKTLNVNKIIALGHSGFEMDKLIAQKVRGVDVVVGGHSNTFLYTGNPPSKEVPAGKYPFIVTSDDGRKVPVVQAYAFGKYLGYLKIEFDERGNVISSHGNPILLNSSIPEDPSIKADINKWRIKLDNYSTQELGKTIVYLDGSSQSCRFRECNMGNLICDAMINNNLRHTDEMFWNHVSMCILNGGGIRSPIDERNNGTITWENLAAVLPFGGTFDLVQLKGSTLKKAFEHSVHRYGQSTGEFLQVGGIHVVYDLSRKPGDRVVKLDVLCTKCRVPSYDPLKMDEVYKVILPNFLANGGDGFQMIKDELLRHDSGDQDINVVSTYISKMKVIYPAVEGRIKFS
Description: Inhibition of soluble hCD73. The data set is classed as biochemical. The conditions noted are these: for fold increase in potency (decrease in Ki) relative to compound 9: versus N^4-benzyloxy compound 9; for fold more potent than 22: versus compound 22.

In a further data set the target is σ1 receptor (Homo sapiens, UniProt Q99720). Description: Off-target binding, Psychoactive Drug Screening Program.
Data set [2] concerns the target T2, tonsillar CD73 (human palatine tonsil cryosections) (Homo sapiens, UniProt P21589).
T2 sequence (P21589 27-574): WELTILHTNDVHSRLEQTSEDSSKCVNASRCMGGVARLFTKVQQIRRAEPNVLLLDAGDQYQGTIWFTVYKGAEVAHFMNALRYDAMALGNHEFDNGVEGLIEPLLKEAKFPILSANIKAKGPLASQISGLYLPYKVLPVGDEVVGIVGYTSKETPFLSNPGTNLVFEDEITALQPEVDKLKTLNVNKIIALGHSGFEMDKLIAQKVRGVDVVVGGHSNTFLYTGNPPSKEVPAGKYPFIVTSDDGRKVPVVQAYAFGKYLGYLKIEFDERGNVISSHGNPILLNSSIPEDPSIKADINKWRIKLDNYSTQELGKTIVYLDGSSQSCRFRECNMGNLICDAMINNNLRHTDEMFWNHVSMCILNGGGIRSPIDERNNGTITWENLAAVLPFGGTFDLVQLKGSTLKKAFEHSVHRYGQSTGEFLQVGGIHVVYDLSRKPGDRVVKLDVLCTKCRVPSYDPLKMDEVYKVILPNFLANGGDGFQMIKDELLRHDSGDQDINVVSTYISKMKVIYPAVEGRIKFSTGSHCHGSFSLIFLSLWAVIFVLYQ
Put plainly: In situ ecto-5′-nucleotidase. The data set is classed as biochemical. The conditions noted are these: 50–250 nM inhibitor; 100 μM AMP; tonsillar germinal centers.

The next data set deals with rat soluble CD73. The note with it: read-out: Ki ± SEM; cited from earlier work.

“And” between values parts separate entries of the source, which are not always exact repeats. Identical values can stand only once. Counter-ions that a name gives are not always drawn.

Chain of σ1 receptor (Q99720 whole entry, species assumed): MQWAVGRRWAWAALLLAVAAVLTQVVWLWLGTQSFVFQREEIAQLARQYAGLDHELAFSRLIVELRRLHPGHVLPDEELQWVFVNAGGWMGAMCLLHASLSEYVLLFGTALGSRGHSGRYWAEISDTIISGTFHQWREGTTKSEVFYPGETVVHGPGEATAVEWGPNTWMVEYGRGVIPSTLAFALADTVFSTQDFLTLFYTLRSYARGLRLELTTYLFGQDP

As to `C[C@H](Nc1cc(Cl)nc2c1cnn2[C@@H]1O[C@H](COP(=O)(O)CP(=O)(O)O)[C@@H](O)[C@H]1O)c1ccccc1F` [Compound 6a, Quemliclustat], in data set [1], the oral bioavailability result is “display oral bioavailability”.
On to `COC[C@](CO)(OC[C@H]1O[C@@H](n2ncc3c(NC4CCCC4)nc(Cl)nc32)[C@H](O)[C@@H]1O)P(=O)(O)O` [Compound 6b, OP-5244], for which the oral bioavailability entry in data set [1] is “display oral bioavailability”.
As for `CCN(CC)CC.CCN(CC)CC.Cn1c(=O)n([C@@H]2O[C@H](COP(=O)(O)CP(=O)(O)O)[C@@H](O)[C@H]2O)cc/c1=N/OCc1ccccc1Cl` [Compound 10, N^4-(2-Chlorobenzyloxy)-3-methylcytidine-5′-α,β-methylenediphosphonate Triethylammonium Salt], the “fold increase in potency (decrease in Ki) relative to compound 9” value at soluble hCD73 (soluble hCD73) is recorded as 6–7 fold.
For the compound `CCN(CC)CC.CCN(CC)CC.Cn1c(=O)n([C@@H]2O[C@H](COP(=O)(O)CP(=O)(O)O)[C@@H](O)[C@H]2O)cc/c1=N/OCc1cccc(Cl)c1` [Compound 11, N^4-(3-Chlorobenzyloxy)-3-methylcytidine-5′-α,β-methylenediphosphonate Triethylammonium Salt], at soluble hCD73 (soluble hCD73), the “fold increase in potency (decrease in Ki) relative to compound 9” value was 6–7 fold.
As for `Cn1c(=O)n([C@@H]2O[C@H](COP(=O)(O)CP(=O)(O)O)[C@@H](O)[C@H]2O)cc/c1=N/OCc1ccc(Cl)cc1` [Compound 16, N^4-(4-Chlorobenzyloxy)-3-methylcytidine-5′-α,β-methylenediphosphonate Triethylammonium Salt], the affinity at σ1 receptor, expressed as Ki, was 2610 ± 640 nM.
For the compound `CCN(CC)CC.CCN(CC)CC.Cn1c(=O)n([C@@H]2O[C@H](COP(=O)(O)CP(=O)(O)O)[C@@H](O)[C@H]2O)cc/c1=N/OCc1ccc(I)cc1` [Compound 18, N^4-(4-Iodobenzyloxy)-3-methylcytidine-5′-α,β-methylenediphosphonate Triethylammonium Salt], on soluble hCD73 (soluble hCD73), the “fold increase in potency (decrease in Ki) relative to compound 9” value is ~ 20 fold and 24 fold. Further, the “effect on catalytic (AMPase) activity of tonsillar CD73 in situ” value in data set [2] is on record as “decreased the catalytic activities”.
`CCN(CC)CC.CCN(CC)CC.Cn1c(=O)n([C@@H]2O[C@H](COP(=O)(O)CP(=O)(O)O)[C@@H](O)[C@H]2O)cc/c1=N/OCc1ccc(S(F)(F)(F)(F)F)cc1` [Compound 20, N^4-[4-(Pentafluorosulfanyl)benzyloxy]-3-methylcytidine-5′-α,β-methylenediphosphonate Triethylammonium Salt]: the “effect on catalytic (AMPase) activity of tonsillar CD73 in situ” value in data set [2] is “decreased the catalytic activities”.
For the compound `CCN(CC)CC.CCN(CC)CC.Cn1c(=O)n([C@@H]2O[C@H](COP(=O)(O)CP(=O)(O)O)[C@@H](O)[C@H]2O)cc/c1=N/OCc1ccc(C(N)=O)cc1` [Compound 23, N^4-[4-(Carbamoyl)benzyloxy]-3-methylcytidine-5′-α,β-methylenediphosphate Triethylammonium Salt], the “fold weaker than methyl ester 21” value at soluble hCD73 (soluble hCD73, versus compound 21) was 2 fold.
Take `CCN(CC)CC.CCN(CC)CC.CCOC(=O)CCNC(=O)c1ccc(CO/N=c2/ccn([C@@H]3O[C@H](COP(=O)(O)CP(=O)(O)O)[C@@H](O)[C@H]3O)c(=O)n2C)cc1` [Compound 26, N^4-{4-[(3-Ethoxy-3-oxopropyl)carbamoyl]benzyloxy}-3-methylcytidine-5′-α,β-methylenediphosphonate Triethylammonium Salt]: the “fold more potent than 22” value at soluble hCD73 (soluble hCD73) was determined as 5 fold.
With `CCN(CC)CC.CCN(CC)CC.Cn1c(=O)n([C@@H]2O[C@H](COP(=O)(O)CP(=O)(O)O)[C@@H](O)[C@H]2O)cc/c1=N/OCc1ccc(C(=O)NCCC(=O)O)cc1` [Compound 27, N^4-{4-[(2-Carboxyethyl)carbamoyl]benzyloxy}-3-methylcytidine-5′-α,β-methylenediphosphonate Triethylammonium Salt], the “fold more potent than 22” value on soluble hCD73 (soluble hCD73) turned out to be 5 fold.
Compound `CCN(CC)CC.CCN(CC)CC.O=c1ccn([C@H]2[C@H](O)[C@H](O)[C@]3(COP(=O)(O)CP(=O)(O)O)C[C@H]23)c(=O)[nH]1` [Compound 28, {[({(2R,3S,4R,5S)-4-[2,4-Dioxo-3,4-dihydropyrimidin-1(2H)-yl]-2,3-dihydroxy-1λ^5-bicyclo[3.1.0]hexan-1-yl}methoxy)(hydroxy)phosphoryl]methyl}phosphonic Acid Triethylammonium Salt] had an inhibition at 50 µM on soluble hCD73 of 28%. On soluble hCD73 (soluble hCD73, between 0.03 nM and 50 μM), the “% inhibition” value is listed as less than 50%.
With `CCN(CC)CC.CCN(CC)CC.Cn1c(=O)n([C@H]2[C@H](O)[C@H](O)[C@]3(COP(=O)(O)CP(=O)(O)O)C[C@H]23)cc/c1=N/OCc1ccc(Cl)cc1` [Compound 29, [({[(2R,3S,4R,5S)-4-(4-{[(4-Chlorobenzyl)oxy]imino}-3-methyl-2-oxo-3,4-dihydropyrimidin-1(2H)-yl)-2,3-dihydroxy-1λ^5-bicyclo[3.1.0]hexan-1-yl]methoxy}(hydroxy)phosphoryl)methyl]phosphonic Acid Triethylammonium Salt], the “fold weaker inhibitor than ribose analogue 16” value at soluble hCD73 (soluble hCD73, versus compound 16) is 88 fold and ~ 90 fold.
As for “N^4-benzyloxy-3-methylcytidine-5′-α,β-methylene-diphosphonate [Compound 9]”, the Ki at rat soluble CD73 is 3.67 nM.
